Results taken from patent US20250382298A1, “NITROGEN-CONTAINING COMPOUND AND USE THEREOF” (SUZHOU GENHOUSE BIO CO., LTD., priority 2022, published 2025).

Tests used:
[1] = Stability test in human liver microsomes; assay type: in vitro ADME, humans; conditions: human liver microsomes 0.5 mg/mL, 1.0 μM substrate; for CLint scaled at 1 μM / half-life at 1 μM: pH 7.4; for CLint scaled at 1 μM: read-out: HLM 0.5 CLint(liver); for half-life at 1 μM: read-out: HLM 0.5 T½
Description: The phase I metabolic stability of the compounds in liver microsomes of CD-1 mice, Sprague-Dawley rats, beagle dogs, cynomolgus monkeys, and humans was assessed.
The animal and human liver microsomes used in the test system were purchased from Xenotech, Corning, or other qualified suppliers and stored in a freezer at a temperature below −60° C. prior to use.
The test samples and control compounds were separately incubated with animal and human liver microsomes at 37±1° C. for a period of incubation time up to 60 min. The samples were removed at the indicated time points, and the reaction was stopped with acetonitrile or another organic solvent containing an internal standard. After centrifugation, the resulting supernatants were assayed by the liquid chromatography-tandem mass spectrometry (LC-MS/MS) method.
73.21 g of dipotassium hydrogen phosphate trihydrate and 10.78 g of potassium dihydrogen phosphate were dissolved in 4000 mL of ultrapure water. The solution was adjusted to pH 7.40±0.10 with 10% phosphoric acid or 1 M potassium hydroxide to make a final concentration of 100 mM.
The test sample powder was prepared into a stock solution at a certain concentration with DMSO or another organic solvent, which was then further diluted with a suitable organic solvent.
Microsomes of each species were diluted into a 2× working solution with a 100 mM potassium phosphate buffer. The final concentration of the microsomes in the reaction system was 0.5 mg/mL.
An appropriate amount of nicotinamide adenine dinucleotide phosphate (NADP) and isocitric acid (ISO) powder was weighed out, dissolved in a magnesium chloride solution, and shaken and mixed well. An appropriate amount of isocitrate dehydrogenase (IDH) was added, and the mixture was mixed well by gently turning upside down. The final concentrations in the reaction system were: 1 mM NADP, 1 mM magnesium chloride, 6 mM ISO, and 1 unit/mL IDH.
The stop solution was prepared with acetonitrile or another organic solvent containing an internal standard (tolbutamide or another suitable compound). The prepared stop solution was stored in a freezer at 2-8° C.
Incubation was performed in a 96-well plate. Eight incubation plates were prepared and designated T0, T5, T15, T30, T45, T60, Blank60, and NCF60, respectively. The first 6 plates corresponded to reaction time points of […], respectively. No test sample or control compound was added to the Blank60 plate, and samples were taken after 60 min of incubation. In the NCF60 plate, incubation was performed for 60 min using the potassium phosphate buffer instead of the NADPH regeneration system solution. Three replicates were made for samples in all conditions.
The microsomes and the test sample or control compound were mixed, and then the incubation plates Blank60, T5, T15, T30, T45, and T60 except for TO and NCF60 were placed in a 37° C. water bath for pre-incubation for about 10 min. In the incubation plate T0, a stop solution was first added, followed by addition of the NADPH regeneration system working solution, and 98 μL of the potassium phosphate buffer was added to each sample well of the incubation plate NCF60 to initiate the reaction. After the pre-incubation of the incubation plates Blank60, T5, T15, T30, T45, and T60 was completed, 98 μL of the NADPH regeneration system working solution was added to each sample well to initiate the reaction. The reaction temperature was 37±1° C., the final volume of the reaction was 200 μL, and the reaction system included 0.5 mg/mL microsomes, 1.0 μM substrate, 1 mM NADP, 6 mM ISO, and 1 unit/ml IDH.
At 5 min, 15 min, […], 45 min, and 60 min, a cold stop solution containing an internal standard was added to the reaction plate to stop the reaction.
All the reaction plates after the reaction was stopped were shaken well and centrifuged at 3220×g at 4° C. for 20 min. After the supernatant was diluted at a certain ratio, LC-MS/MS analysis was performed. […]

[2] = Pharmacokinetic test in mice; assay type: in vivo; conditions: BALB/c mice; for AUC / Cmax / half-life: mouse, plasma; for half-life: read-out: t½ (converted)
How it was run: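 BALB/c mice (9 per route) received single IV or intragastric doses, with orbital blood taken at 0.25–24 h into K2-EDTA. Plasma levels were measured by LC-MS/MS. Parameters came from non-compartmental analysis using the linear-log trapezoidal method.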

[3] = Pharmacokinetic test in rats; assay type: in vivo; conditions: SD rats; for AUC / Cmax / half-life: rat, plasma; for half-life: read-out: t½ (converted)
Description: In this example, the pharmacokinetic behavior of the compounds after intravenous injection (IV) and intragastric (PO) administration in SD rats was tested.
On the day of administration, rats were weighed for actual body weight and the administration volume was calculated. Each compound was tested in two groups with 3 rats in each group; one group was subjected to administration by single intravenous injection, and the other group was subjected to single intragastric administration. Whole blood samples were collected via the jugular vein at prescribed time points (0.25 h, 0.5 h, 1 h, 2 h, 4 h, 8 h, and 24 h after administration). After blood sample collection, the samples were immediately transferred to labeled commercial sample tubes containing K2-EDTA (0.85-1.15 mg), followed by centrifugation (3200×g, 4° C., 10 min) and plasma collection. The plasma was transferred to a pre-cooled centrifuge tube, frozen in dry ice, and then stored in an ultra-low temperature freezer at −60° C. or lower until the LC-MS/MS analysis.
Plasma concentrations were determined by the LC-MS/MS method. Plasma drug concentration data for the compounds were processed using a non-compartmental model in the WinNonlin Version 6.3 (Pharsight, Mountain View, CA) pharmacokinetic software. The relevant pharmacokinetic parameters were calculated by a linear-log trapezoidal method.

Compound | CLint scaled at 1 μM [1] [mL/min/kg] | half-life at 1 μM [1] [h] | F ([2]; PO @5mpk) [%] | AUC ([2]; 5 mg/kg, PO @5mpk) [µM·h] | Cmax ([2]; 5 mg/kg, PO @5mpk) [nM] | half-life ([2]; 5 mg/kg, PO @5mpk) [h] | F ([3]; PO @5mpk) [%] | AUC ([3]; 5 mg/kg, PO @5mpk) [µM·h] | Cmax ([3]; 5 mg/kg, PO @5mpk) [nM] | half-life ([3]; 5 mg/kg, PO @5mpk) [h] | F ([2]; PO @30mpk) [%] | AUC ([2]; 30 mg/kg, PO @30mpk) [µM·h] | Cmax ([2]; 30 mg/kg, PO @30mpk) [nM] | half-life ([2]; 30 mg/kg, PO @30mpk) [h] | F ([3]; PO @30mpk) [%] | AUC ([3]; 30 mg/kg, PO @30mpk) [µM·h] | Cmax ([3]; 30 mg/kg, PO @30mpk) [nM] | half-life ([3]; 30 mg/kg, PO @30mpk) [h] | HLM 0.5 CLint(liver) [1] [mL/min/kg] | HLM 0.5 T½ [1] [h]
Cc1cc(NC(=O)c2ccc(NS(=O)(=O)CCO)cc2N2CC3CCC(C3)C2)nc(N2CCC(F)(F)CC2)n1 [Compound 3] |  |  | 87 | 74.8 | 4250 | 44.5 | 57 | 16.2 | 1330 | 7 |  |  |  |  |  |  |  |  |  | 
O=C(Nc1cn2ncnc2c(N2CCC(F)(F)CC2)n1)c1ccc(NS(=O)(=O)CCO)cc1N1CCC2(CC1)CC2 [Compound 23] | < 8.6 | > 2.42 |  |  |  |  |  |  |  |  |  |  |  |  |  |  |  |  |  | 
O=C(Nc1cn2c(F)cnc2c(N2CCC(F)(F)CC2)n1)c1ccc(NS(=O)(=O)CCO)cc1N1CCC2(CC1)CC2 [Compound 34] | 1.9 | 15.3 | 257 | 70.1 | 6390 | 3.7 |  |  |  |  | 147 | 220 | 15200 | 9.6 | 25.7 | 62.5 | 3430 | 66.3 |  | 
O=C(Nc1cn2cnnc2c(N2CCC(F)(F)CC2)n1)c1ccc(NS(=O)(=O)CCO)cc1N1CCC2(CC1)CC2 [Compound 24] |  |  |  |  |  |  |  |  |  |  |  |  |  |  |  |  |  |  | 9.4 | 2.22
CS(=O)(=O)Nc1ccc(C(=O)Nc2cn3ccnc3c(N3CCC(F)(F)CC3)n2)c(N2CC3CCC(C3)C2)c1 [Compound 19] | 11.6 | 1.79 | 101 | 58.3 | 3920 | 14.9 | 63 | 20.5 | 1240 | 12.2 | 92 | 320 | 15300 | 16.5 |  |  |  |  |  | 
O=C(Nc1cc2c(c(N3CCC(F)(F)CC3)n1)COC2)c1ccc(NS(=O)(=O)CCO)cc1N1CCC2(CC1)CC2 [Compound 14] | 22.3 | 0.933 |  |  |  |  | 25 | 1.92 | 351 | 6.4 |  |  |  |  |  |  |  |  |  | 
CS(=O)(=O)Nc1ccc(C(=O)Nc2cn3ccnc3c(N3CCC(F)(F)CC3)n2)c(N2CCC3(CC2)CC3)c1 [Compound 10] | < 8.6 | > 2.42 |  |  |  |  |  |  |  |  |  |  |  |  |  |  |  |  |  | 
CS(=O)(=O)Nc1ccc(C(=O)Nc2cc3cc[nH]c3c(N3CCC(F)(F)CC3)n2)c(N2CCC3(CC2)CC3)c1 [Compound 47] | 14.3 | 2.02 |  |  |  |  |  |  |  |  |  |  |  |  |  |  |  |  |  | 
O=C(Nc1cn2ccnc2c(N2CCC(F)(F)CC2)n1)c1ccc(NS(=O)(=O)CCO)cc1N1CC2CCC(C2)C1 [Compound 17] |  |  | 116 | 13.3 | 2690 | 3.3 | 39 | 3.2 | 582 | 4.9 |  |  |  |  |  |  |  |  |  | 

Continued, in another order:

CLint scaled at 1 μM [1] [mL/min/kg] | half-life at 1 μM [1] [h] | F ([2]; PO @5mpk) [%] | AUC ([2]; 5 mg/kg, PO @5mpk) [µM·h] | Cmax ([2]; 5 mg/kg, PO @5mpk) [nM] | half-life ([2]; 5 mg/kg, PO @5mpk) [h] | F ([3]; PO @5mpk) [%] | AUC ([3]; 5 mg/kg, PO @5mpk) [µM·h] | Cmax ([3]; 5 mg/kg, PO @5mpk) [nM] | half-life ([3]; 5 mg/kg, PO @5mpk) [h] | F ([2]; PO @30mpk) [%] | AUC ([2]; 30 mg/kg, PO @30mpk) [µM·h] | Cmax ([2]; 30 mg/kg, PO @30mpk) [nM] | half-life ([2]; 30 mg/kg, PO @30mpk) [h] | F ([3]; PO @30mpk) [%] | AUC ([3]; 30 mg/kg, PO @30mpk) [µM·h] | Cmax ([3]; 30 mg/kg, PO @30mpk) [nM] | half-life ([3]; 30 mg/kg, PO @30mpk) [h] | Compound | HLM 0.5 CLint(liver) [1] [mL/min/kg] | HLM 0.5 T½ [1] [h]
< 8.6 | > 2.42 | 79 | 17.8 | 1770 | 3.4 | 27 | 9.67 | 540 | 22.8 |  |  |  |  |  |  |  |  | O=C(Nc1cc2ccsc2c(N2CCC(F)(F)CC2)n1)c1ccc(NS(=O)(=O)CCO)cc1N1CCC2(CC1)CC2 [Compound 15] |  | 
< 8.6 | > 2.42 | 97 | 6.87 | 1610 | 1.2 | 16 | 1.56 | 303 | 5.9 |  |  |  |  |  |  |  |  | O=C(Nc1cn2ccnc2c(N2CCC(F)(F)CC2)n1)c1ccc(NS(=O)(=O)CCO)cc1N1CCC2(CC1)CC2 [Compound 8] |  | 
< 8.6 | > 2.42 | 107 | 60.9 | 4170 | 4 | 24.7 | 33.9 | 2090 | 10.6 | 61 | 207 | 15300 | 5.4 |  |  |  |  | O=C(Nc1cc2cccnc2c(N2CCC(F)(F)CC2)n1)c1ccc(NS(=O)(=O)CCO)cc1N1CCC2(CC1)CC2 [Compound 21] |  | 
< 8.6 | > 2.42 | 44 | 13.5 | 1550 | 4.7 | 23 | 8.92 | 509 | 55.8 |  |  |  |  |  |  |  |  | O=C(Nc1cc2ccccc2c(N2CCC(F)(F)CC2)n1)c1ccc(NS(=O)(=O)CCO)cc1N1CCC2(CC1)CC2 [Compound 6] |  | 
 |  |  |  |  |  |  |  |  |  | 218 | 79.8 | 14600 | 10 |  |  |  |  | O=C(Nc1cc2cc[nH]c2c(N2CCC(F)(F)CC2)n1)c1ccc(NS(=O)(=O)CCO)cc1N1CCC2(CC1)CC2 [Compound 22] |  | 
